Results: patent publication US7049309B2, “3-Thia-4-arylquinolin-2-one potassium channel modulators” (Bristol-Myers Squibb Company, priority 2003, dated 2006)

Tests used:
[1] = system: cloned mammalian (mSlo or hSlo) BK channels heterologously expressed in Xenopus oocytes; assay: Assay for BK channel openers: two-electrode voltage clamp of BK-mediated outward current in Xenopus oocytes; type: cell-based; conditions: percent increase over BK current in controls, voltage step to +140 mV, IBTX-sensitive current
Experimental: The ability of the compounds of the invention to open BK channels and increase whole-cell outward (K^+) BK-mediated currents was assessed under voltage-clamp conditions by determining their ability to increase cloned mammalian (mSlo or hSlo) BK-mediated outward current heterologously expressed in Xenopus oocytes [Butler, A., et al., Science 1993, 261, 221–224; Dworetzky, S. I., et al., Mol. Brain Res. 1994, 27, 189–193; Gribkoff, V. K., et al., Mol. Pharmacol. 1996, 50, 206–217]. The two BK constructs employed represent nearly structurally identical homologous proteins, and have proven to be pharmacologically indistinguishable in our tests. To isolate BK current from native (background, non-BK) current, the specific and potent BK channel-blocking toxin iberiotoxin (IBTX) [Galvez, A., et al., J. Biol. Chem. 1990, 265, 11083–11090] was employed at a supramaximal concentration, e.g., 50–100 nanomolar (“nM”). The relative contribution of BK channel-mediated current to total outward current was determined by subtraction of the current remaining in the presence of IBTX (non-BK current) from the current profiles obtained in all other experimental conditions (control, drug, and wash) [Gribkoff, V. K. et al., Mol. Pharmacol. 1996, 50, 206–217]. […] All compounds were tested in 5–10 oocytes and are reported at the indicated concentration of 20 micromolar (“μM”) (or as otherwise indicated); the effect of the selected compounds of the invention on BK current was expressed as the percent of control IBTX-sensitive current at a single transmembrane voltage (+140 mV) and is listed in Table 1. Recordings were accomplished using standard two-electrode voltage clamp techniques [Stuhmer, W., et al., Methods in Enzymology, 1992, 207, 319–339]; voltage-clamp protocols consisted of 500–750 milliseconds (“ms”) duration step depolarizations, from a holding potential of −60 mV, to a final voltage up to +140 mV in 20 mV steps. The experimental media (modified Barth's solution) consisted of millimolar (“mM”): NaCl (88), NaHCO3 (2.4), KCl (1.0), HEPES (10), MgSO4 (0.82), Ca(NO3)2 (0.33), CaCl2 (0.41); pH 7.5.

[2] = system: rat small intestine (ileum) segments; assay: Rat small intestine (ileum) strip relaxation (nifedipine-sensitive force); design: species or system rat (Sprague Dawley); conditions: integral of nifedipine-sensitive force pre- and 30 min post-compound; compound concentration not given
Text: The ability of the compounds of the invention to relax rat small intestine tissue as a model for the treatment of irritable bowel syndrome is described as follows. Male rats (Harlan, Sprague Dawley, 250–350 g) were sacrificed by decapitation. A portion of small intestine (ileum) was removed and the attached connective tissues and intestinal contents removed. The ileum was cut into segments of ≧1 cm in length. The segments were mounted longitudinally between fixed hooks in organ baths containing warm (37° C.) physiological salt solution (composition in mM: NaCl 118.4, KCl 4.7, KH2PO4 1.2, MgSO4 1.2, CaCl2 1.8, Glucose 10.1, NaHCO3 25; gassed with 95% O2/5% CO2, pH 7.4). A stable tension of ˜1.5 g was maintained in the tissue segments during the equilibration period of 45 minutes. Changes in muscle tension were measured with isometric force transducers (Grass, FT-03C) and recorded using AcqKnowledge data acquisition system (AcqKnowledge for MP100WS, Biopac Systems Inc., Goleta, Calif.). Compound or vehicle was added in the baths for 30 minutes. “Zero” active force was established at the end of the experiment using nifedipine (20 μM). The effects of compounds or vehicle on force was determined by measuring the integral of nifedipine-sensitive force (including resting tone and spontaneous contractions) pre- and 30 min post-compound (or vehicle) addition. Results are expressed as the percentage inhibition of force. DMSO vehicle inhibited force (integral) by −0.6±3.0% (n=25).

| Structure (SMILES) | % MaxiK opening ([1]; at 20 μM) [%] | % inhibition of force (RSI strips) [2] [%] | % MaxiK opening ([1]; at 1 μM) |
| --- | --- | --- | --- |
| O=c1[nH]c2ccc(C(F)(F)F)cc2c(-c2cc(Cl)ccc2O)c1SCC(O)CN1CCN(CCO)CC1 (stereo not shown) [Example 84, 4-(5-Chloro-2-hydroxyphenyl)-3-[[2-hydroxy-3-[4-(2-hydroxyethyl)-1-piperazinyl]propyl]thio]-6-(trifluoromethyl)-2(1H)-quinolinone] | 287 | 55 |  |
| COc1ccc(Cl)cc1-c1c(SCC(O)CN2CCN(CCO)CC2)c(=O)[nH]c2ccc(C(F)(F)F)cc12 (stereo not shown) [Example 79, 4-(5-Chloro-2-methoxyphenyl)-3-[[2-hydroxy-3-[4-(2-hydroxyethyl)-1-piperazinyl]propyl]thio]-6-(trifluoromethyl)-2(1H)-quinolinone] | 150 | 10 |  |
| CN1CCN(CCC(O)CSc2c(-c3cc(Cl)ccc3O)c3cc(C(F)(F)F)ccc3[nH]c2=O)CC1 (stereo not shown) [Example 4, 4-(5-Chloro-2-hydroxyphenyl)-3-[[2-hydroxy-4-(4-methyl-1-piperazinyl)butyl]thio]-6-(trifluoromethyl)-2(1H)-quinolinone] | 515 |  |  |
| O=c1[nH]c2ccc(C(F)(F)F)cc2c(-c2cc(Cl)ccc2O)c1SCC(O)CN1CCCC1 (stereo not shown) [Example 81, 4-(5-Chloro-2-hydroxyphenyl)-3-[[2-hydroxy-3-(1-pyrrolidinyl)propyl]thio]-6-(trifluoromethyl)-2(1H)-quinolinone] | 192 |  |  |
| O=c1[nH]c2ccc(C(F)(F)F)cc2c(-c2cc(Cl)ccc2O)c1SCC(O)CN1CCSCC1 (stereo not shown) [Example 85, 4-(5-Chloro-2-hydroxyphenyl)-3-[[2-hydroxy-3-(4-thiomorpholinyl)propyl]thio]-6-(trifluoromethyl)-2(1H)-quinolinone] | 319 | 40 |  |
| CCN(CC)CC(O)CSc1c(-c2cc(Cl)ccc2O)c2cc(C(F)(F)F)ccc2[nH]c1=O (stereo not shown) [Example 74, 4-(5-Chloro-2-hydroxyphenyl)-3-[[3-(diethylamino)-2-hydroxypropyl]thio]-6-(trifluoromethyl)-2(1H)-quinolinone] | 192 | 46 |  |
| COc1ccc(Cl)cc1-c1c(SCC(O)CN2CCN(c3ncccn3)CC2)c(=O)[nH]c2ccc(C(F)(F)F)cc12 (stereo not shown) [Example 92, 4-(5-Chloro-2-methoxyphenyl)-3-[[2-hydroxy-3-[4-(2-pyrimidinyl)-1-piperazinyl]propyl]thio]-6-(trifluoromethyl)-2(1H)-quinolinone] |  |  | 85^⋄ % |
| CN(C)CCCN(C)CC(O)CSc1c(-c2cc(Cl)ccc2O)c2cc(C(F)(F)F)ccc2[nH]c1=O (stereo not shown) [Example 87, 4-(5-Chloro-2-hydroxyphenyl)-3-[[3-[[3-(dimethylamino)propyl]methylamino]-2-hydroxypropyl]thio]-6-(trifluoromethyl)-2(1H)-quinolinone] | 214 |  |  |
| COc1ccc(Cl)cc1-c1c(SCC(O)CN2CCN(C)CC2)c(=O)[nH]c2ccc(C(F)(F)F)cc12 (stereo not shown) [Example 102, 4-(5-Chloro-2-methoxyphenyl)-3-[[2-hydroxy-3-(4-methyl-1-piperazinyl)propyl]thio]-6-(trifluoromethyl)-2(1H)-quinolinone] | 163 |  |  |
| COc1ccc(Cl)cc1-c1c(SCC(O)CN2CCC(O)C2)c(=O)[nH]c2ccc(C(F)(F)F)cc12 (stereo not shown) [Example 91, 4-(5-Chloro-2-methoxyphenyl)-3-[[2-hydroxy-3-(3-hydroxy-1-pyrrolidinyl)propyl]thio]-6-(trifluoromethyl)-2(1H)-quinolinone] | 125 |  |  |
| COc1ccc(Cl)cc1-c1c(SCC(O)CN2CCSCC2)c(=O)[nH]c2ccc(C(F)(F)F)cc12 (stereo not shown) [Example 90, 4-(5-Chloro-2-methoxyphenyl)-3-[[2-hydroxy-3-(4-thiomorpholinyl)propyl]thio]-6-(trifluoromethyl)-2(1H)-quinolinone] | 97 |  |  |
| CN(C)CCN1CCN(CC(O)CSc2c(-c3cc(Cl)ccc3O)c3cc(C(F)(F)F)ccc3[nH]c2=O)CC1 (stereo not shown) [Example 86, 4-(5-Chloro-2-hydroxyphenyl)-3-[[3-[4-[2-(dimethylamino)ethyl]-1-piperazinyl]-2-hydroxypropyl]thio]-6-(trifluoromethyl)-2(1H)-quinolinone] | 124 |  |  |
| COc1ccc(Cl)cc1-c1c(SCC(O)CN2CCN(C(C)=O)CC2)c(=O)[nH]c2ccc(C(F)(F)F)cc12 (stereo not drawn) [Example 97, 4-Acetyl-alpha-[[[4-(5-chloro-2-methoxyphenyl)-1,2-dihydro-2-oxo-6-(trifluoromethyl)-3-quinolinyl]thio]methyl]-1-piperazineethanol] | 192 |  |  |
| COc1ccc(Cl)cc1-c1c(SCC(O)CN2CCC(C)CC2)c(=O)[nH]c2ccc(C(F)(F)F)cc12 (stereo not shown) [Example 107, 4-(5-Chloro-2-methoxyphenyl)-3-[[2-hydroxy-3-(4-methyl-1-piperidinyl)propyl]thio]-6-(trifluoromethyl)-2(1H)-quinolinone] | 115 |  |  |
| O=c1[nH]c2ccc(C(F)(F)F)cc2c(-c2cc(Cl)ccc2O)c1SCC(O)CN1CCOCC1 (stereo not shown) [Example 82, 4-(5-Chloro-2-hydroxyphenyl)-3-[[2-hydroxy-3-(4-morpholinyl)propyl]thio]-6-(trifluoromethyl)-2(1H)-quinolinone] | 292 |  |  |
